Data from patent publication US20040106582A1, “Use of mglur5 antagonists for the treatment of pruritic conditions” (priority 2001, published 2004).

Experiments:
[1] = test system: itch induced in mice by Compound 48/80; assay: model of itch induced in mice by injection of the pruritic agent Compound 48/80; assay type: in vivo; conditions: C57BL/6 mice, 30 μg/10 μl s.c. Compound 48/80, oral administration of 3-30 mg/kg and 10-100 mg/kg, 30 min prior, observed 30 minutes
Description: Experiments are carried out on adult female and male C57BL/6 mice (25-30 g). Individual mice receive the test compound p.o. (a vehicle alone for control animals) 30 min. prior to subcutaneous injections of the above mentioned pruritic agent into the dorsal neck region and are then placed into a clear Perspex box. A maximum of 3 mice are closely and continuously observed by an experimenter for 30 minutes following injection. ‘Scratching episodes’ are defined as scratching focused at the site of injection using the hind paws, and differentiated from grooming behaviour that also involves licking and is systematically directed over all body regions. The duration of the itch behaviour is recorded by using a keyboard linked to three stop-clocks.

[2] = test system: magnesium deficiency-induced dermatosis in rat; assay: model of magnesium deficiency-induced dermatosis in rat; assay type: in vivo; conditions: male hairless rats on low-magnesium diet, oral treatment at 6 mg/kg/day, 5 consecutive days
Source text: Activity of mGluR5 antagonists as antipruritics according to the invention is evidenced for example in a model of magnesium deficiency-induced dermatosis in rat. This dermatosis is characterised by a transient erythematous maculopapular rash associated with a severe generalised pruritus. The animals scratch and bite themselves causing excoriations and wounds on the head and trunk (Neckermann G., Bavandi A., Meingassner J. G., Br. J. Dermatol; 2000; 142: 669-679). According to this model, male hairless rats (Ico:OFA hr/hr) obtained from Iffa Credo (Lyon, France) at an age of 3 weeks are maintained with a diet low in magnesium (C10350, Altromin, Lage, Germany) and demineralised water. After onset of symptoms, the test compound is applied orally to 5 rats per group on 5 consecutive days. Control animals are treated similarly with the vehicle alone. Efficacy is assessed by clinical examination and semiquantitative assessment of skin lesions. The intensity and extend of the erythematous maculopapular rash is scored with 0 (not present) to 4 (most severe changes, involvement of the whole trunk). The intensity of pruritus is evaluated by the scoring of excoriations at the head, shoulders, lateral abdomen/flanks and caudal dorsal trunk with 0 (not present), 1 (few lesions) or […] (numerous lesions) resulting in a combined maximal score of 12 per animal. […]

Structure (SMILES) | duration of scratching episodes induced by the pruritic agent [1] | inflammatory skin reddening and infiltration [2] | signs of pruritus (scoring of excoriations) [2]
Cc1cccc(C#Cc2ccccc2)n1 [2-methyl-6-phenylethynyl-pyridine] | significantly decreases |  | 
Cc1cccc(C#Cc2cccnc2)n1 [2-[2-(pyridin-3-yl)ethynyl]-6-methyl-pyridine] |  | is not inhibited | inhibits signs of pruritus
